Target: ALPK1 (Homo sapiens (Human), UniProt Q96QP1)
Test: ALPK1 in vitro kinase assay (HTRF of TIFA phosphorylation)
Type: biochemical
Conditions: ALPK1 2 nM, TIFA substrate, ADP-Heptose activator, HTRF readout
Excerpt: In embodiments, a compound of Formula I, or a subembodiment described herein, is an inhibitor of ALPK1 as measured, for example, in an in vitro kinase assay, or an assay designed to measure the activation of downstream targets of ALPK1 pathway activation, for example NFkB transcriptional activation and the secretion of proinflammatory cytokines and chemokines, such as IL-8, which is also referred to as CXCL-8. In general, the computer program XL fit was used for data analysis, including non-linear regression analysis. The half maximal inhibitory concentration (IC50) was used as the measure of a compound's effectiveness in the assays. IC50 values were determined using the following logistic equation Y=min+(max−min)/(1+(X/IC50^−hillslpoe), where Y is the value at the compound concentration, X. The concentration response curve fitting was conducted using GraphPad Prism version 6.00 software.
ALPK1 kinase activity was measured in an in vitro assay using ADP-Heptose as the ALPK1 ligand and activator of its kinase activity and TIFA protein as the ALPK1 phosphorylation substrate. Since phosphorylated TIFA proteins oligomerize, Homogeneous Time-Resolved Fluorescence (HTRF) was used to measure protein:protein interaction between HA-tagged TIFA proteins as an indicator of TIFA phosphorylation.
In brief, dose-response studies were performed with HEK293 cells cultured in Dulbecco's Modified Eagle Medium (DMEM) supplemented 10% fetal bovine serum (FBS, Hyclone™) containing antibiotics (pen/strep, G418) in 384-well assay plates. Each well contained 0.1 mg TIFA, ALPK1 (2 nM final concentration in reaction mixture) and kinase buffer (100 mM of HEPES pH 7.4, 4 mM DTT, 40 mM MgCl2, 20 mM of β-Glycerol phosphate disodium salt, 0.4 mM of Na3VO4, 0.16 mg/mL). Titrations of the test compounds were prepared in dimethylsulphoxide (DMSO). The reaction was initiated by addition of ATP and ADP-Heptose.
For HTRF, samples were incubated with a Tb cryptate-labeled anti-HA antibody for capturing HA-tagged proteins according to the manufacturer's instructions (PerkinElmer™, CisBio™) and the fluorescence signal was quantified (Tecan Infinite F NANO+). HTRF signals were calculated as the HTRF ratio (ratio of fluorescence measured at 665 nm and 620 nm)×104 (thereby using the signal at 620 nm as an internal standard).
IC50 values were determined using 3- or 4-parameter logistic equation using GraphPad Prism version 6.00. The reference compound, A027, was used as a positive control for each plate.

Chain of ALPK1 (Q96QP1 whole entry): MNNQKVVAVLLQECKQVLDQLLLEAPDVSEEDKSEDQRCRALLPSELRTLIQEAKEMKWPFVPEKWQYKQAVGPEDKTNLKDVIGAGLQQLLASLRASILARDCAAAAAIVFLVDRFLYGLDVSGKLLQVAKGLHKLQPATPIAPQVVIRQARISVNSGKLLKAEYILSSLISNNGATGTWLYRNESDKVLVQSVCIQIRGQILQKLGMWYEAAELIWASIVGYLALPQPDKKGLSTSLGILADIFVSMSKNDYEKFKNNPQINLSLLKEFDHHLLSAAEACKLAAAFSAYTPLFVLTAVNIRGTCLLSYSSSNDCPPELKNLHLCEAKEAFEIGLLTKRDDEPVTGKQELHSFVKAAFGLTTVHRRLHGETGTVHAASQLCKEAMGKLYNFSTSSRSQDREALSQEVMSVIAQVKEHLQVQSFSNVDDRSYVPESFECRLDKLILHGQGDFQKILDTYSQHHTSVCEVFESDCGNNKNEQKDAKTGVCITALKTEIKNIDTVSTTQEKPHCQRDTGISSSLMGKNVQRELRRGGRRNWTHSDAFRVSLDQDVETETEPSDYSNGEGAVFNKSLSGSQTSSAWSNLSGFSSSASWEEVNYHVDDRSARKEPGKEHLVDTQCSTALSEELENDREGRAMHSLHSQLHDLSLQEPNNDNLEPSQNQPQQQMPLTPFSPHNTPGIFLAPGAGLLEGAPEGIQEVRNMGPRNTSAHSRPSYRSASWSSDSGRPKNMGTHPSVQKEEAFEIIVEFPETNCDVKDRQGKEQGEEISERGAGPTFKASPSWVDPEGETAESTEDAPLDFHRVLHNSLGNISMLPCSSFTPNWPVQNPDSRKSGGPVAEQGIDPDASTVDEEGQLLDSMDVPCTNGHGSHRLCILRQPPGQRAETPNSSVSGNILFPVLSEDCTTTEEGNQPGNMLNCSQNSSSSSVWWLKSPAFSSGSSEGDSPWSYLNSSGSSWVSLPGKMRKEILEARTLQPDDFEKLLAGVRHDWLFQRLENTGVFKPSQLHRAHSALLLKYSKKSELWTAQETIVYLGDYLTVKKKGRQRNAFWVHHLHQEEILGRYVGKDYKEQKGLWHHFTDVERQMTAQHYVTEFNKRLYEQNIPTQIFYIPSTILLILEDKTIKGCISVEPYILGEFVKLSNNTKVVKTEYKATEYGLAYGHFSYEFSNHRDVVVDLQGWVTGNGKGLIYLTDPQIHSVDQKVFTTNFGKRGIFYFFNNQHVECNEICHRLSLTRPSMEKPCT

| Compound | IC50 |
| --- | --- |
| COc1ccc(C(C)(C)c2csc(NC(=O)c3cccc(N4CCN(CCO)CC4)c3)n2)cc1 [Example B007, 3-(4-(2-hydroxyethyl)piperazin-1-yl)-N-(4-(2-(4-methoxyphenyl)propan-2-yl)thiazol-2-yl)benzamide] | 0.23 µM |
| COc1ccc(C(C)(C)c2csc(NC(=O)c3ccc(N4CCNCC4)cc3Cl)n2)cc1 [Example B008, 2-chloro-N-(4-(2-(4-methoxyphenyl)propan-2-yl)thiazol-2-yl)-4-(piperazin-1-yl)benzamide] | 0.037 µM |
| COc1ccc(C(C)(C)c2csc(NC(=O)c3ccc(N4CCC(O)C4)cc3)n2)cc1 (centres unmarked) [Example B009, 4-(3-hydroxypyrrolidin-1-yl)-N-(4-(2-(4-methoxyphenyl)propan-2-yl)thiazol-2-yl)benzamide] | 0.951 µM |
| COc1ccc(C(C)(C)c2csc(NC(=O)c3ccc(N4CCC(N(C)C)C4)nc3)n2)cc1 (centres unmarked) [Example B010, 6-(3-(dimethylamino)pyrrolidin-1-yl)-N-(4-(2-(4-methoxyphenyl)propan-2-yl)thiazol-2-yl)nicotinamide] | 0.187 µM |
| COc1ccc(C(C)(C)c2csc(NC(=O)c3ccc(CN4CCNCC4)cc3F)n2)cc1 [Example B013, 2-fluoro-N-(4-(2-(4-methoxyphenyl)propan-2-yl)thiazol-2-yl)-4-(piperazin-1-ylmethyl)benzamide] | 0.111 µM |
| COc1ccc(C(C)(C)c2csc(NC(=O)c3ccc(N4CCNCC4C)cc3)n2)cc1 (centres unmarked) [Example B014] | 0.3 µM |
| COc1ccc(C(C)(C)c2csc(NC(=O)c3cnc(N4CCNCC4)nc3)n2)cc1 [Example B015, N-(4-(2-(4-methoxyphenyl)propan-2-yl)thiazol-2-yl)-2-(piperazin-1-yl)pyrimidine-5-carboxamide] | 0.161 µM |
| CC(C)(c1ccc(Br)cc1)c1csc(NC(=O)c2ccc(N3CCNCC3)cc2)n1 [Example B016, N-(4-(2-(4-bromophenyl)propan-2-yl)thiazol-2-yl)-4-(piperazin-1-yl)benzamide] | 0.06 µM |
| COc1ccc(C(C)(C)c2csc(NC(=O)c3ccc(CN4CCN(C)CC4)cc3)n2)cc1 [Example B017, N-(4-(2-(4-methoxyphenyl)propan-2-yl)thiazol-2-yl)-4-((4-methylpiperazin-1-yl)methyl)benzamide] | 0.148 µM |
| COc1ccc(C(C)(C)c2csc(NC(=O)c3cccc(CN4CCN(CCO)CC4)c3)n2)cc1 [Example B018, 3-((4-(2-hydroxyethyl)piperazin-1-yl)methyl)-N-(4-(2-(4-methoxyphenyl)propan-2-yl)thiazol-2-yl)benzamide] | 0.187 µM |
| CC(c1ccc(C(=O)Nc2nc(C(C)(C)c3ccc(Br)cc3)cs2)cc1)N1CCNCC1 (centres unmarked) [Example B019, N-(4-(2-(4-bromophenyl)propan-2-yl)thiazol-2-yl)-4-(1-(piperazin-1-yl)ethyl)benzamide] | 0.098 µM |
| COc1ccc(C(C)(C)c2csc(NC(=O)c3ccc(OC4CCN(CCO)CC4)cc3)n2)cc1 [Example B020, 4-((1-(2-hydroxyethyl)piperidin-4-yl)oxy)-N-(4-(2-(4-methoxyphenyl)propan-2-yl)thiazol-2-yl)benzamide] | 0.17 µM |
| COc1ccc(C(C)(C)c2csc(NC(=O)c3ccc(OCCN(C)C)cc3)n2)cc1 [Example B021, 4-(2-(dimethylamino)ethoxy)-N-(4-(2-(4-methoxyphenyl)propan-2-yl)thiazol-2-yl)benzamide] | 0.083 µM |
| COc1ccc(C(C)(C)c2csc(NC(=O)c3ccc(OCCCN4CCNCC4)cc3)n2)cc1 [Example B022, N-(4-(2-(4-methoxyphenyl)propan-2-yl)thiazol-2-yl)-4-(3-(piperazin-1-yl)propoxy)benzamide] | 0.294 µM |
| COc1ccc(C(C)(C)c2csc(NC(=O)c3cccc(OCCCN4CCNCC4)c3)n2)cc1 [Example B023, N-(4-(2-(4-methoxyphenyl)propan-2-yl)thiazol-2-yl)-3-(3-(piperazin-1-yl)propoxy)benzamide] | 0.15 µM |
| COc1ccc(C(C)(C)c2csc(NC(=O)c3ccc(OCCN4CCNCC4)cc3)n2)cc1 [Example B024, N-(4-(2-(4-methoxyphenyl)propan-2-yl)thiazol-2-yl)-4-(2-(piperazin-1-yl)ethoxy)benzamide] | 0.116 µM |

| Compound | IC50 |
| --- | --- |
| COc1ccc(C(C)(C)c2csc(NC(=O)c3cnc(N4CCNCC4)cn3)n2)cc1 [Example B025, N-(4-(2-(4-methoxyphenyl)propan-2-yl)thiazol-2-yl)-5-(piperazin-1-yl)pyrazine-2-carboxamide] | 0.298 µM |
| COc1ccc(C(C)(C)c2csc(NC(=O)c3ccc(CN4CCNCC4C)cc3)n2)cc1 (centres unmarked) [Example B026, N-(4-(2-(4-methoxyphenyl)propan-2-yl)thiazol-2-yl)-4-((2-methylpiperazin-1-yl)methyl)benzamide] | 0.127 µM |
| COc1ccc(C(C)(C)c2csc(NC(=O)c3ccc(N4CCC(N(C)C)C4)cc3)n2)cc1 (centres unmarked) [Example B027, 4-(3-(dimethylamino)pyrrolidin-1-yl)-N-(4-(2-(4-methoxyphenyl)propan-2-yl)thiazol-2-yl)benzamide] | 0.219 µM |
| COc1ccc(C(C)(C)c2csc(NC(=O)c3ccc(NC4CCN(C)CC4)cc3)n2)cc1 [Example B028, N-(4-(2-(4-methoxyphenyl)propan-2-yl)thiazol-2-yl)-4-((1-methylpiperidin-4-yl)amino)benzamide] | 0.271 µM |
| COc1ccc(C(C)(C)c2csc(NC(=O)c3ccc(C(=O)NC4CCN(C)CC4)cc3)n2)cc1 [Example B030, N1-(4-(2-(4-methoxyphenyl)propan-2-yl)thiazol-2-yl)-N4-(1-methylpiperidin-4-yl)terephthalamide] | 0.155 µM |
| Cc1ccc(C(C)(C)c2csc(NC(=O)c3ccc(N4CCNCC4)cc3)n2)cc1 [Example B031, 4-(piperazin-1-yl)-N-(4-(2-(p-tolyl)propan-2-yl)thiazol-2-yl)benzamide] | 0.037 µM |
| COc1ccc(C(C)(C)c2csc(NC(=O)c3ccc(NCCO)cc3)n2)cc1 [Example B032, 4-((2-hydroxyethyl)amino)-N-(4-(2-(4-methoxyphenyl)propan-2-yl)thiazol-2-yl)benzamide] | 0.28 µM |
| COc1ccc(C(C)(C)c2csc(NC(=O)c3ccc(NCCN)cc3)n2)cc1 [Example B033, 4-((2-aminoethyl)amino)-N-(4-(2-(4-methoxyphenyl)propan-2-yl)thiazol-2-yl)benzamide] | 0.247 µM |
| COc1ccc(C(C)(C)c2csc(NC(=O)c3ccc(CN4CCN(CCO)CC4)cc3)n2)cc1 [Example B034, 4-((4-(2-hydroxyethyl)piperazin-1-yl)methyl)-N-(4-(2-(4-methoxyphenyl)propan-2-yl)thiazol-2-yl)benzamide] | 0.044 µM |
| CC(C)(c1ccc(Br)cc1)c1csc(NC(=O)c2ccc(N3CCNCC3)nc2)n1 [Example B035, N-(4-(2-(4-bromophenyl)propan-2-yl)thiazol-2-yl)-6-(piperazin-1-yl)nicotinamide] | 0.075 µM |
| CC(C)(c1ccc(Br)cc1)c1csc(NC(=O)c2cnc(N3CCNCC3)nc2)n1 [Example B036, N-(4-(2-(4-bromophenyl)propan-2-yl)thiazol-2-yl)-2-(piperazin-1-yl)pyrimidine-5-carboxamide] | 0.11 µM |
| CC(C)(c1ccc(Br)cc1)c1csc(NC(=O)NCc2cc(F)c(N3CCNCC3)c(F)c2)n1 [Example B037, 1-(4-(2-(4-bromophenyl)propan-2-yl)thiazol-2-yl)-3-(3,5-difluoro-4-(piperazin-1-yl)benzyl)urea] | 0.023 µM |
| COc1ccc(C(C)(C)c2cnc(NC(=O)c3ccc(N4CCNCC4)c(F)c3)s2)cc1 [Example B038, 3-fluoro-N-(5-(2-(4-methoxyphenyl)propan-2-yl)thiazol-2-yl)-4-(piperazin-1-yl)benzamide] | 0.216 µM |
| COc1ccc(C(C)(C)c2csc(NC(=O)c3ccc(N4CCNCC4)c(OC)c3)n2)cc1 [Example B039, 3-methoxy-N-(4-(2-(4-methoxyphenyl)propan-2-yl)thiazol-2-yl)-4-(piperazin-1-yl)benzamide] | 0.123 µM |
| COc1ccc(C(C)(C)c2csc(NC(=O)c3ccc(CN4CCNCC4)cc3)n2)cc1 [Example B040, N-(4-(2-(4-methoxyphenyl)propan-2-yl)thiazol-2-yl)-4-(piperazin-1-ylmethyl)benzamide] | 0.093 µM |
| COc1ccc(C(C)(C)c2csc(NC(=O)c3ccc(N4CCC(N)C4)cc3)n2)cc1 (centres unmarked) [Example B041, 4-(3-aminopyrrolidin-1-yl)-N-(4-(2-(4-methoxyphenyl)propan-2-yl)thiazol-2-yl)benzamide] | 0.08 µM |

Source: patent US20240109853A1 (Shanghai Yao Yuan Biotechnology Co., Ltd., priority 2020, published 2024)
